Test results reported in ChEMBL document CHEMBL1649189, “Avian Aspergillus fumigatus strains resistant to both itraconazole and voriconazole” (2009).
Values after ≈ are worked out from the molar mass of the structure shown.

Assays:
Type in all cases: functional
[1] = tested on: Aspergillus fumigatus; experiment: Antifungal activity against voriconalzole-resistant Aspergillus fumigatus isolate by broth microdilution method
[2] = tested on: Aspergillus fumigatus; experiment: Antifungal activity against Aspergillus fumigatus isolate by broth microdilution method
[3] = tested on: Aspergillus fumigatus; experiment: Antifungal activity against itraconazole-resistant Aspergillus fumigatus isolate by broth microdilution method

| Compound | MIC [1] [µg/mL] | MIC50 [2] [µg/mL] | MIC90 [2] [µg/mL] | MIC [3] [µg/mL] |
| --- | --- | --- | --- | --- |
| CCC(C)n1ncn(-c2ccc(N3CCN(c4ccc(OCC5COC(Cn6cncn6)(c6ccc(Cl)cc6Cl)O5)cc4)CC3)cc2)c1=O (stereo not drawn) [ITRACONAZOLE] | > 16 | 0.5 (≈ 0.709 µM) | 0.5 (≈ 0.709 µM) |  |
| C[C@@H]1[C@H](O)[C@@H](C)/C=C/C=C/C=C/C=C/C=C/C=C/C=C/[C@H](O[C@@H]2O[C@H](C)[C@@H](O)[C@H](N)[C@@H]2O)C[C@@H]2O[C@](O)(C[C@@H](O)C[C@@H](O)[C@H](O)CC[C@@H](O)C[C@@H](O)CC(=O)O[C@H]1C)C[C@H](O)[C@H]2C(=O)O [AMPHOTERICIN B] |  | 2 (≈ 2.16 µM) | 2 (≈ 2.16 µM) |  |
| C[C@@H](c1ncncc1F)[C@](O)(Cn1cncn1)c1ccc(F)cc1F [VORICONAZOLE] |  | 0.25 (≈ 0.716 µM) | 0.5 (≈ 1.43 µM) | 4 (≈ 11.5 µM) |
